From patent US4500526A, “Cephalosporin derivatives” (Bristol-Myers Company, priority 1983, dated 1985)
Converted amounts (≈) assume the structure as drawn. Read-outs that look alike come from different tables or passages of the source.

Tests used:
[1] = tested on: Penicillinsensitive S. aureus (5 strains); test: MIC, two-fold serial agar dilution, group (G+)-Ia; type: cell-based; conditions: Staphylococcus aureus, read-out: Geometric Mean of MIC
Method: (§1) In the primary evaluation of the compounds of this invention, the Minimum Inhibitory Concentrations (MIC's) of the compounds were determined by the two-fold serial agar dilution method in Mueller-Hinton agar against 32 strains of test organisms in six groups. The sample weights of the test compounds were adjusted according to the purity of each compound, so as to give a more accurate measure of the MIC's.
(G+)Ia: Penicillinsensitive S. aureus (5 strains)

[2] = tested on: Penicillinresistant S. aureus (5 strains); test: MIC, two-fold serial agar dilution, group (G+)-Ib; type: cell-based; conditions: Staphylococcus aureus, read-out: Geometric Mean of MIC
Method: as §1
(G+)Ib: Penicillinresistant S. aureus (5 strains)

[3] = tested on: Cephalothinsensitive E. coli (2 strains), Kl. pneumoniae (1 strain) and Pr. mirabilis (2 strains); test: MIC, two-fold serial agar dilution, group (G-)-Ia; type: cell-based; conditions: 5 strains, Mueller-Hinton agar, read-out: Geometric Mean of MIC
Method: as §1
(G-)Ia: Cephalothinsensitive E. coli (2 strains), Kl. pneumoniae (1
strain) and Pr. mirabilis (2 strains)

[4] = tested on: Cephalothinresistant E. coli (3 strains) and Kl. pneumoniae (3 strains); test: MIC, two-fold serial agar dilution, group (G-)-Ib; type: cell-based; conditions: Escherichia coli, read-out: Geometric Mean of MIC
Method: as §1
(G-)Ib: Cephalothinresistant E. coli (3 strains) and Kl. pneumoniae (3

[5] = tested on: M. morganii (1 strain), Ent. cloacae (2 strains) and Ser. marcescens (2 strains); test: MIC, two-fold serial agar dilution, group (G-)-II; type: cell-based; conditions: read-out: Geometric Mean of MIC
Method: as §1
(G-)II: M. morganii (1 strain), Ent. cloacae (2 strains) and Ser.

[6] = tested on: Ps. aeruginosa (6 strains); test: MIC, two-fold serial agar dilution, group (G-)-III; type: cell-based; conditions: Pseudomonas aeruginosa, read-out: Geometric Mean of MIC
Method: as §1
(G-)III: Ps. aeruginosa (6 strains)

[7] = Mouse blood levels after single intramuscular injection; type: in vivo, mice; conditions: in vivo, im, 20 mg/kg
Method: The absorption of some of the preferred compounds were determined in mice following a single intramuscular injection of the test compound (dissolved in 0.1M phosphate buffer; pH 7) at a dosage of 20 mg/kg. Blood samples were collected from the orbital sinuses into heparinized capillary tubes and assayed in Nutrient Agar (pH 6.6) using E. coli Ess-22-31 as the test organism. The blood levels at various time intervals, the half-life values (t1/2) and the areas under the curve (AUC) are shown in Table 2.

[8] = (G+)-Ia, 5 strains, Mueller-Hinton agar
[9] = (G+)-Ib, 5 strains, Mueller-Hinton agar
[10] = (G-)-III, 6 strains, Mueller-Hinton agar
[11] = (G-)-II, 5 strains, Mueller-Hinton agar

Structure (SMILES) | MIC [1, 8] | MIC [2, 9] | MIC [3] | MIC [4] | MIC [5] | MIC [6, 10] | AUC [7] | concentration at 10 min [7] | concentration at 20 min [7] | concentration at 0.5 h [7] | concentration at 40 min [7] | concentration at 50 min [7] | concentration at 1 h [7] | concentration at 1.5 h [7] | concentration at 2 h [7] | half-life [7] | MIC [2] | MIC [6] | MIC [5, 11] | MIC [1]
CCO/N=C(\C(=O)NC1C(=O)N2C(C(=O)[O-])=C(C[n+]3ccc4scnc4c3)CSC12)c1csc(N)n1 (stereo not drawn) [Ib, 7-[(Z)-2-(2-Aminothiazol-4-yl)-2-ethoxyiminoacetamido]-3-{(5-thiazolo[4,5-c]pyridino)methyl}-3-cephem-4-carboxylate] | 0.42 µg/mL (≈ 0.77 µM) | 0.96 µg/mL (≈ 1.76 µM) | 0.035 µg/mL (≈ 0.0641 µM) | 0.22 µg/mL (≈ 0.403 µM) | 0.32 µg/mL (≈ 0.586 µM) | 2.6 µg/mL (≈ 4.77 µM) | 8400 ng·h/mL | 15000 ng/mL | 22000 ng/mL | 8400 ng/mL | 6100 ng/mL | 3800 ng/mL | 920 ng/mL | 680 ng/mL | 430 ng/mL | 19 min |  |  |  | 
Nc1nc(/C(=N/OCC(=O)O)C(=O)NC2C(=O)N3C(C(=O)[O-])=C(C[n+]4ccc5sc(N)nc5c4)CS[C@H]23)cs1 (stereo partly drawn) [Ig, 7-[(Z)-2-(2-Aminothiazol-4-yl)-2-(carboxymethoxyimino)acetamido]-3-(2-amino-5-thiazolo[4,5-c]pyridinio)methyl-3-cephem-4-carboxylate] | 2.1 µg/mL (≈ 3.56 µM) |  | 0.0072 µg/mL (≈ 0.0122 µM) | 0.3 µg/mL (≈ 0.508 µM) | 0.1 µg/mL (≈ 0.169 µM) |  | 15000 ng·h/mL | 21000 ng/mL | 17000 ng/mL | 15000 ng/mL | 10000 ng/mL | 7600 ng/mL | 6300 ng/mL | 1900 ng/mL | 840 ng/mL | 22 min | 3.6 µg/mL (≈ 6.1 µM) | 1.8 µg/mL (≈ 3.05 µM) |  | 
CO/N=C(\C(=O)NC1C(=O)N2C(C(=O)[O-])=C(C[n+]3ccc4sc(C)nc4c3)CSC12)c1csc(N)n1 (stereo not drawn) [Ih, 7-[(Z)-2-(2-Aminothiazol-4-yl)-2-methoxyiminoacetamido]-3-[{5-(2-methylthiazolo[4,5-c]pyridinio)}methyl]-3-cephem-4-carboxylate] | 0.34 µg/mL (≈ 0.623 µM) | 0.78 µg/mL (≈ 1.43 µM) | 0.007 µg/mL (≈ 0.0128 µM) | 0.058 µg/mL (≈ 0.106 µM) | 0.11 µg/mL (≈ 0.202 µM) | 2.3 µg/mL (≈ 4.22 µM) | 8600 ng·h/mL | 16000 ng/mL | 10000 ng/mL | 6900 ng/mL | 5900 ng/mL | 4100 ng/mL | 3000 ng/mL | 790 ng/mL | 130 ng/mL | 16 min |  |  |  | 
CCO/N=C(\C(=O)NC1C(=O)N2C(C(=O)[O-])=C(C[n+]3ccc4sc(N)nc4c3)CSC12)c1csc(N)n1 (stereo not drawn) [Ij, 7-[(Z)-2-(2-Aminothiazol-4-yl)-2-ethoxyiminoacetamido]-3-[{5-(2-aminothiazolo[4,5-c]pyridinio)}methyl]-3-cephem-4-carboxylate] | 0.36 µg/mL (≈ 0.642 µM) | 0.48 µg/mL (≈ 0.856 µM) | 0.02 µg/mL (≈ 0.0357 µM) | 0.17 µg/mL (≈ 0.303 µM) |  | 3 µg/mL (≈ 5.35 µM) |  |  |  |  |  |  |  |  |  |  |  |  | 0.24 µg/mL (≈ 0.428 µM) | 
CC(C)(O/N=C(\C(=O)NC1C(=O)N2C(C(=O)[O-])=C(C[n+]3ccc4sc(N)nc4c3)CSC12)c1csc(N)n1)C(=O)O (stereo not drawn) [Io, 7-[(Z)-2-(2-Aminothiazol-4-yl)-2-(2-carboxyprop-2-oxyimino)-acetamido]-3-[{5-(2-aminothiazolo[4,5-c]pyridinio)}methyl]-3-cephem-4-carboxylate] |  | 3.8 µg/mL (≈ 6.14 µM) | 0.023 µg/mL (≈ 0.0372 µM) | 0.47 µg/mL (≈ 0.76 µM) |  | 1.5 µg/mL (≈ 2.42 µM) |  |  |  |  |  |  |  |  |  |  |  |  | 0.66 µg/mL (≈ 1.07 µM) | 1.6 µg/mL (≈ 2.59 µM)
CNC(=O)Nc1nc2c[n+](CC3=C(C(=O)[O-])N4C(=O)C(NC(=O)/C(=N\OC)c5csc(N)n5)[C@H]4SC3)ccc2s1 (stereo partly drawn) [Ir, 7-[(Z)-2-(2-Aminothiazol-4-yl)-2-methoxyiminoacetamido]-3-[2-(3-methylureido)-5-thiazolo[4,5-c]pyridinio]methyl-3-cephem-4-carboxylate] |  | 0.8 µg/mL (≈ 1.33 µM) | 0.025 µg/mL (≈ 0.0414 µM) | 0.46 µg/mL (≈ 0.762 µM) |  | 5.2 µg/mL (≈ 8.61 µM) |  |  |  |  |  |  |  |  |  |  |  |  | 0.52 µg/mL (≈ 0.861 µM) | 0.4 µg/mL (≈ 0.663 µM)
